“Also recorded” adds a separate entry of the source.
Legend:
Type in all cases: cell-based, human
[1] = system: NF-κB reporter in HEK293 cells expressing MYD88 L265P; experiment: NF-κB luciferase reporter assay; conditions: 24 hours; 0.5 μmol/l
Description: HEK293 cells expressing MYD88 L265P were generated as described elsewhere (Ansell et al., Blood Cancer J, 4:e183, 2014). Cells were transiently transfected with 0.5 ng Renilla and 0.25 μg of a pNFκB-luciferase reporter plasmid/1.0×10^6 cells. b-AP15 was added to each well at the indicated doses; after 24 hours, luciferase activity was measured in cell extracts and normalized against Renilla with the Dual Luciferase Kit (Promega, Madison, Wis.).

WM cells = experiment: Immunoblot analysis of WM cells
Description: Total protein extracts were made using radioimmunoprecipitation assay lysis buffer (50 mmol/1 Tris containing 150 mmol/1 NaCl, 0.1% SDS, 1% TritonX-100, 1% sodium deoxycholate, pH 7.2) with 0.2% protease and phosphatase inhibitor cocktail (Sigma, St. Louis, Mo.) on ice for 40 minutes, vortexing for 5 seconds every 10 minutes. Following centrifugation at 18,400 g for 20 minutes, the supernatant was collected and used for Western blot analyses. Protein content in the extracts was measured by bicinchoninic acid protein assay reagent. Aliquots of 20 μg of total protein were boiled in Laemmli sample buffer, loaded onto 10% SDS-PAGE gels, and transferred onto a nitrocellulose membrane. Membranes were blocked for 1 hour in TBS/Tween 20 [TTBS] containing 1% nonfat dried milk and 1% BSA. Incubation with primary antibodies was done overnight at 4° C., followed by washing 3× with TTBS and incubation for 1 hour with HRP-conjugated secondary antibody. The blots were developed using chemiluminescence (Thermo Scientific, Rockford, Ill.).

[2] = system: WM cell lines (BCWM.1, BCWM.1/BR, RPCI-WM1, RPCI-WM/BR); experiment: NanoString nCounter gene expression profiling; conditions: 50 nmol/l (WT) or 100 nmol/l (BR), 24 hours
Description: FIGS. 14A and 14B are diagrams depicting genes altered in b-AP15 treated WM cells. BCWM.1 and RPCI-WM1 were treated with b-AP15 (50 nmol/l), and BR clones were treated with 100 nmol/1 of the DUB inhibitor for 24 hours, followed by collection of RNA for profiling using the NanoString nCounter assay. FIG. 14A is an intersect analysis in which treated (Tx) cell lines were first compared to their untreated counterparts and then against one another to delineate which genes were altered in the same orientation across all four cell lines tested. FIG. 14B is a diagram of an IPA network analysis, depicting the relationship between the 36 genes and illustrating the interaction and relative expression of these genes. The darkness of the node color denotes the degree of differential gene expression as compared to baseline.
Total RNA from four WM cell lines (BCWM.1, BCWM.1/BR, RPCI-WM1 and RPCI-WM/BR) were prepared using Exiqon miRCURY RNA isolation kit (Exiqon, Woburn, Mass. USA) following the manufacturer's instructions. RNA samples were quantitated using a ND-1000 spectrophotometer (NanoDrop) and evaluated for degradation using a 2100 Bioanalyzer (Agilent Technologies, Santa Clara, Calif., USA).
The NanoString nCounter (NanoString, Seattle, Wash.) assay was used for mRNA quantification and expression in WM cells that were treated with b-AP15, as described elsewhere (Geiss et al., Nat Biotechnol 26:317-25, 2008; and Paulus et al., Brit J Haematol 164:352-65, 2014). Briefly, a library is constructed with two sequence-specific probes for the gene of interest. Unique pairs of 3′ reporter and 5′ capture probes are developed to distinguish transcripts for the gene of interest using a color-based barcoding system. The capture probe contains a base pair sequence that is complementary to the target mRNA and linked to a biotin affinity tag, which binds the mRNA of interest. The reporter probe also is also designed to be complementary to the target mRNA, contains a base sequence that is linked to an RNA-based color-coded molecular tag that provides a signal for detection. Using this method, a distinct color code is digitally generated for each gene of interest. In our experiments, all probes were mixed together with total RNA (100 ng from each sample) in a single hybridization reaction for 12 hours at 65° C. in solution. Using the nCounter Prep Station, each probe-mRNA complex was captured post-hybridization onto a streptavidin coated surface, aligned and imaged. Each sample was scanned for 600 FOV on the nCounter Digital Analyzer. As each target mRNA is designated by its unique color code, the level of expression was quantified by counting the number of codes for each molecule. Subsequent normalization of the raw data to internal controls provided by the manufacturer was performed using the nSolver Analysis software v1.1. Data was extracted using the nCounter RCC Collector; based on the positive and negative controls, a cutoff of 20 was used to filter out transcript signals that registered at levels of background noise.
Statistical interpretation and data visualization (heat map) was conducted using Multi Experiment Viewer (MeV) from The Institute for Genomic Research (TIGR) (Saeed et al., Methods Enzymol 411:134-193, 2006; and Saeed et al., Biotechniques 34:374-378, 2003). Using the normalized data that was exported from nCounter RCC Collector, an average of mRNA transcript probe values was taken for each cell line (three biological replicates each) representing controls (untreated) and drug-treated samples, a tab-delimited text file was generated in Microsoft Excel and uploaded into MeV. Genes were log-2 transformed and mean centered. Bi-dimensional, average-linkage, unsupervised hierarchical clustering analysis was applied to find the relationships between samples and genes using the Pearson correlation coefficient.

In the case of `C=CC(=O)N1C/C(=C\c2ccc([N+](=O)[O-])cc2)C(=O)/C(=C/c2ccc([N+](=O)[O-])cc2)C1` [b-AP15], the “NF-κB luciferase reporter activity” value [1] is reported as “significantly reduced; also recorded: significant reduction”, the BCL2 protein (WM cells) is reported as “No change” and the p-EIF2a expression (WM cells) is reported as “did not appear to change”. The “phosphorylated MAPK14 (p38) protein” value (WM cells; 6-hour treatment) was “significant increase”, the “RELA nuclear protein levels” value (WM cells; 6 hours, BCWM.1 shown) was “marked reduction; also recorded: markedly reduced” and the “MYC total and nuclear expression” value (WM cells; BCWM.1) was “reduced total and nuclear expression”. The “EIF2AK3 (PERK) levels” value (WM cells; BR models) was “decreased EIF2AK3 levels”, the “USP14 and UCHL5 protein expression” value (WM cells; WM cell lines (WT and BR), 0.5 and 1 μmol/l) was “no observable shift” and the PARP1 cleavage (WM cells; WM cell lines and primary WM tumor cells) was “confirming execution of apoptosis”. For the same compound, the TP53 protein (WM cells; WT and BR WM cells) was “marginal increase”, the HSPA1A protein (WM cells; all cell lines) was “further induced” and the “ERN1a, XBP1u and XBP1s protein” value (WM cells; all models tested) was “significantly induced”. For the same compound, the “total ubiquitinated cellular protein content” value (WM cells; dose-dependent) was “increasing amounts of high molecular weight polyubiquitinated conjugates”, the “USP14 and UCHL5 protein expression” value (WM cells; primary CD19+/CD138+ WM cells, 0.5 μmol/l) was “did not change” and the “p-MAPK3/MAPK1 (ERK1/2)” value (WM cells; wild type cell lines) was “increase”. The “Average fold change, AKT2” value [2] was −2.812 fold, the “Average fold change, BIRC5” value [2] was −2.209 fold and the “Average fold change, BMI1” value [2] was −3.09 fold. For the same compound, the “Average fold change, CASP2” value [2] was −3.679 fold, the “Average fold change, CCNA2” value [2] was −5.841 fold and the “Average fold change, CCND2” value [2] was −3 fold. For the same compound, the “Average fold change, CCNE1” value [2] was −4.193 fold, the “Average fold change, CDC2” value [2] was −4.668 fold and the “Average fold change, CDC25B” value [2] was −3.629 fold. The “Average fold change, CDK4” value [2] was −2.59 fold, the “Average fold change, CSK” value [2] was −3.871 fold and the “Average fold change, E2F1” value [2] was −3.634 fold. For the same compound, the “Average fold change, EGR1” value [2] was 2.27 fold, the “Average fold change, ETV6” value [2] was −4.643 fold and the “Average fold change, FOS” value [2] was 5.569 fold. For the same compound, the “Average fold change, HDAC1” value [2] was −2.887 fold, the “Average fold change, HRAS” value [2] was −3.277 fold and the “Average fold change, IL8” value [2] was 14.77 fold. For the same compound, the “Average fold change, JUN” value [2] was 5.625 fold, the “Average fold change, MSH2” value [2] was −4.367 fold and the “Average fold change, MSH6” value [2] was −4.242 fold. The “Average fold change, MYB” value [2] was −9.647 fold, the “Average fold change, MYBL2” value [2] was −2.794 fold and the “Average fold change, MYC” value [2] was −3.287 fold. The “Average fold change, PCNA” value [2] was −3.166 fold, the “Average fold change, RAD54L” value [2] was −3.029 fold and the “Average fold change, SERPINE1” value [2] was 5.734 fold. For the same compound, the “Average fold change, SPI1” value [2] was −2.522 fold, the “Average fold change, SYK” value [2] was −3.84 fold and the “Average fold change, TFDP1” value [2] was −4.261 fold. For the same compound, the “Average fold change, TFRC” value [2] was −3.192 fold, the “Average fold change, TOP2A” value [2] was −6.321 fold and the “Average fold change, TUBB” value [2] was −3.724 fold. For the same compound, the “Average fold change, TYMS” value [2] was −3.966 fold, the “Average fold change, XPC” value [2] was −3.045 fold and the “Average fold change, XRCC5” value [2] was −2.834 fold.

Source: patent publication US20170128518A1, “METHODS AND MATERIALS FOR IDENTIFYING AND TREATING MAMMALS RESISTANT TO PROTEASOME INHIBITOR TREATMENTS” (Mayo Foundation for Medical Education and Research, priority 2014, published 2017)
